Experimental data published in US20250176546A1, “ANTIMICROBIAL CaNCR PEPTIDE VARIANTS” (Donald Danforth Plant Science Center, priority 2022, published 2025).
Converted amounts (≈) assume the structure as drawn. Read-outs that look alike come from different tables or passages of the source. Peptide text beside a SMILES is read from it.

Key:
Botrytis cinerea = test: Antifungal 96-well plate assay with resazurin cell viability readout; format: cell-based; conditions: chemically synthesized peptides; 2-fold dilution series; 48 h incubation, then resazurin overnight; lowest concentration with no change in blue color
Experimental: Antifungal activity of NCR13_AlaV1-V5 was assessed at different concentrations using a 2-fold dilution series of each peptide. Antifungal activity of each peptide was determined spectrophotometrically using the 96-well plate assay. Around 45 μL of each peptide at different concentrations was added to each well of the microtiter plate containing 45 μL of ˜[…] spore suspension. The quantitative fungal growth inhibition was determined by measuring the absorbance at 595 nm using a (Tecan Infinite M200 ProTecan Systems Inc., San Jose, CA) microplate reader after 48 h. The fungal cell viability was determined by the resazurin cell viability assay. After incubation of the pathogen/peptide mixture for 48 h, 10 μl of 0.1% resazurin solution was added to each well. After incubation of the mixture overnight, a change in the color of the resazurin dye from blue to pink or colorless indicated the presence of live fungal cells. The MIC for each peptide was the lowest concentration of each peptide at which no change in blue color occurred.

[1] = tested on: Tricophyton rubrum (36381); test: In vitro antifungal activity (spectrophotometric) against human fungal pathogens; conditions: Pichia pastoris-expressed peptide, half-strength potato dextrose broth
Experimental: (§1) The in vitro antifungal activity of these peptides was determined spectrophotometrically as described in previous publications (Sagaram et al. 2013: Islam et al. 2017) in half-strength potato dextrose broth.

Candida auris (38883) = test: as above; conditions: Pichia pastoris-expressed peptide, half-strength potato dextrose broth
Experimental: as §1

Candida albicans (33795) = test: as above; conditions: Pichia pastoris-expressed peptide, half-strength potato dextrose broth
Experimental: as §1

Candida glabrata (38827) = test: as above; conditions: Pichia pastoris-expressed peptide, half-strength potato dextrose broth
Experimental: as §1

[2] = tested on: Tricophyton metagrophytes (26103); test: as above; conditions: Pichia pastoris-expressed peptide, half-strength potato dextrose broth
Experimental: as §1

For CC[C@H](C)[C@H](NC(=O)[C@H](CS)NC(=O)[C@H](CCCCN)NC(=O)[C@@H]1CCCN1C(=O)[C@@H](NC(=O)[C@H](CCCCN)NC(=O)[C@@H]1CCCN1C(=O)[C@H](CCCCN)NC(=O)[C@H](CCCNC(=N)N)NC(=O)[C@H](CS)NC(=O)[C@H](C)NC(=O)[C@H](Cc1ccccc1)NC(=O)[C@H](CCCCN)NC(=O)[C@H](CCCCN)NC(=O)[C@H](CS)NC(=O)[C@H](CC(=O)O)NC(=O)[C@H](CCCCN)NC(=O)[C@H](CC(=O)O)NC(=O)[C@H](CO)NC(=O)[C@H](CCC(N)=O)NC(=O)[C@H](CS)NC(=O)[C@@H]1CCCN1C(=O)[C@H](CCCCN)NC(=O)[C@@H](N)[C@@H](C)O)C(C)C)C(=O)N[C@@H](CC(N)=O)C(=O)NCC(=O)N[C@@H](Cc1ccccc1)C(=O)N[C@@H](CS)C(=O)N[C@@H](CCCCN)C(=O)N[C@@H](CS)C(=O)N[C@H](C(=O)N[C@@H](CCCNC(=N)N)C(=O)O)C(C)C [NCR13, reference compound] (H-TKPCQSDKDCKKFACRKPKVPKCINGFCKCVR-OH; N-terminus and C-terminus assumed), the “MIC (μM) Fusarium graminearum” value (Fusarium graminearum; 48 h) was 6 µM (≈ 22 µg/mL).
CC[C@H](C)[C@H](NC(=O)[C@H](CS)NC(=O)[C@H](CCCCN)NC(=O)[C@@H]1CCCN1C(=O)[C@@H](NC(=O)[C@H](CCCCN)NC(=O)[C@@H]1CCCN1C(=O)[C@H](CCCCN)NC(=O)[C@H](CCCNC(=N)N)NC(=O)[C@H](CS)NC(=O)[C@H](C)NC(=O)[C@H](Cc1ccccc1)NC(=O)[C@H](CCCCN)NC(=O)[C@H](CCCCN)NC(=O)[C@H](CS)NC(=O)[C@H](C)NC(=O)[C@H](C)NC(=O)[C@H](C)NC(=O)[C@H](C)NC(=O)[C@H](C)NC(=O)[C@H](CS)NC(=O)[C@@H]1CCCN1C(=O)[C@H](CCCCN)NC(=O)[C@@H](N)[C@@H](C)O)C(C)C)C(=O)N[C@@H](CC(N)=O)C(=O)NCC(=O)N[C@@H](Cc1ccccc1)C(=O)N[C@@H](CS)C(=O)N[C@@H](CCCCN)C(=O)N[C@@H](CS)C(=O)N[C@H](C(=O)N[C@@H](CCCNC(=N)N)C(=O)O)C(C)C [NCR13_AlaV1] (H-TKPCAAAAACKKFACRKPKVPKCINGFCKCVR-OH; N-terminus and C-terminus assumed) was tested, and the “MIC (μM) Fusarium graminearum” value (Fusarium graminearum; 48 h) was 6 µM (≈ 20.7 µg/mL).
CC[C@H](C)[C@H](NC(=O)[C@H](CS)NC(=O)[C@H](C)NC(=O)[C@H](C)NC(=O)[C@H](C)NC(=O)[C@H](CCCCN)NC(=O)[C@@H]1CCCN1C(=O)[C@H](CCCCN)NC(=O)[C@H](CCCNC(=N)N)NC(=O)[C@H](CS)NC(=O)[C@H](C)NC(=O)[C@H](Cc1ccccc1)NC(=O)[C@H](CCCCN)NC(=O)[C@H](CCCCN)NC(=O)[C@H](CS)NC(=O)[C@H](CC(=O)O)NC(=O)[C@H](CCCCN)NC(=O)[C@H](CC(=O)O)NC(=O)[C@H](CO)NC(=O)[C@H](CCC(N)=O)NC(=O)[C@H](CS)NC(=O)[C@@H]1CCCN1C(=O)[C@H](CCCCN)NC(=O)[C@@H](N)[C@@H](C)O)C(=O)N[C@@H](CC(N)=O)C(=O)NCC(=O)N[C@@H](Cc1ccccc1)C(=O)N[C@@H](CS)C(=O)N[C@@H](CCCCN)C(=O)N[C@@H](CS)C(=O)N[C@H](C(=O)N[C@@H](CCCNC(=N)N)C(=O)O)C(C)C [NCR13_AlaV4] (H-TKPCQSDKDCKKFACRKPKAAACINGFCKCVR-OH; N-terminus and C-terminus assumed) was tested, and the “MIC (μM) Botrytis cinerea” value (Botrytis cinerea) was “Inactive” and the “MIC (μM) Fusarium graminearum” value (Fusarium graminearum; 48 h) was 12 µM (≈ 42.6 µg/mL).
In the case of CC(C)[C@H](NC(=O)[C@H](CS)NC(=O)[C@H](CCCCN)NC(=O)[C@H](CS)NC(=O)[C@H](C)NC(=O)[C@H](C)NC(=O)[C@H](C)NC(=O)[C@H](C)NC(=O)[C@H](CS)NC(=O)[C@H](CCCCN)NC(=O)[C@@H]1CCCN1C(=O)[C@@H](NC(=O)[C@H](CCCCN)NC(=O)[C@@H]1CCCN1C(=O)[C@H](CCCCN)NC(=O)[C@H](CCCNC(=N)N)NC(=O)[C@H](CS)NC(=O)[C@H](C)NC(=O)[C@H](Cc1ccccc1)NC(=O)[C@H](CCCCN)NC(=O)[C@H](CCCCN)NC(=O)[C@H](CS)NC(=O)[C@H](CC(=O)O)NC(=O)[C@H](CCCCN)NC(=O)[C@H](CC(=O)O)NC(=O)[C@H](CO)NC(=O)[C@H](CCC(N)=O)NC(=O)[C@H](CS)NC(=O)[C@@H]1CCCN1C(=O)[C@H](CCCCN)NC(=O)[C@@H](N)[C@@H](C)O)C(C)C)C(=O)N[C@@H](CCCNC(=N)N)C(=O)O [NCR13_AlaV5] (H-TKPCQSDKDCKKFACRKPKVPKCAAAACKCVR-OH; N-terminus and C-terminus assumed), the “MIC (μM) Fusarium graminearum” value (Fusarium graminearum; 48 h) was 6 µM (≈ 21.1 µg/mL).
For “CaNCR13: Wild-type nodule specific cysteine rich peptide from chickpea, SEQ ID NO: 1, expressed in Pichia pastoris and purified by FPLC and HPLC (TKPCQSDKDCKKFACRKPKVPKCINGFCKCVR; listed as Cicer arietinum)”, the “MIC” value [1] was 3.2 µM, the “MIC” value (Candida auris (38883)) was 6.4 µM and the “MIC” value (Candida albicans (33795)) was 3.2 µM. The “MIC” value (Candida glabrata (38827)) was 0.41 µM and the “MIC” value [2] was 0.41 µM.
With “TKPCQSDKDCAAAACRKPKVPKCINGFCKCVR (SEQ ID NO: 42) [NCR13_AlaV2]” the “MIC (μM) Botrytis cinerea” value (Botrytis cinerea) was “Inactive” and the “MIC (μM) Fusarium graminearum” value (Fusarium graminearum) was “Inactive”.
“TKPCQSDKDCKKFACAAAAVPKCINGFCKCVR (SEQ ID NO: 43) [NCR13_AlaV3]” was tested, and the “MIC (μM) Botrytis cinerea” value (Botrytis cinerea) was “Inactive” and the “MIC (μM) Fusarium graminearum” value (Fusarium graminearum) was “Inactive”.
